From US7034035B2, “Fungicidal mono-, bi-, and tri-cycloheteroalkyl amides and their compositions, methods of use and preparation” (priority 1999, dated 2006) come the findings set out here.

In series [1] the test system is Stagonospora nodorum (Leptosphaeria nodorum—LEPTNO). Nature of the series: Inhibition of in vitro fungal growth, LEPTNO. Type of series: cell-based. Details: inhibition of growth: dose or concentration left out as unconfirmed. Conditions: Leptosphaeria; in vitro fungal growth.
Series [2] has as its system Mycosphaerella graminicola (Septoria tritici—SEPTTR). Briefly: Inhibition of in vitro fungal growth, SEPTTR. Conditions: Zymoseptoria tritici; in vitro fungal growth. Details: inhibition of growth: dose or concentration left out as unconfirmed. Type of series: cell-based.
Series [3] deals with Rhizoctonia solani (RHIZSO). Briefly: microbe, parasite or virus in culture. Type of series: cell-based. The settings on record: Rhizoctonia solani, read-out: RHIZSO in vitro Growth Inhibition.
For series [4], the system named is Magnaporthe grisea (Pyricularia oryzae—PYRIOR). Briefly: microbe, parasite or virus in culture. Type of series: cell-based. Conditions: Pyricularia oryzae, read-out: PYRIOR in vitro Growth Inhibition.
The test system of series [5] is Leptosphaeria nodorum—LEPTNO. Briefly: Glume Blotch of Wheat, in vivo whole plant, 24 Hour Protectant. Conditions: Leptosphaeria, 24 h, wheat (cultivar Yuma), sprayed at 100 ppm, inoculated after 24 hours; control of fungal infection vs untreated plants; read-out: LEPTNO in vivo 1 Day Protectant.
The subject of series [6] is Ustilago maydis (USTIMA). Briefly: microbe, parasite or virus in culture. Type of series: cell-based. The settings on record: Mycosarcoma maydis, read-out: USTIMA in vitro Growth Inhibition.
Series [7] deals with Phytophthora infestans—PHYTIN. Briefly: whole plant or invertebrate. The settings on record: Phytophthora, in Solanum lycopersicum, 24 h, read-out: PHYTIN in vivo 1 Day Protectant. Type of series: in vivo.
The subject of series [8] is Septoria tritici—SEPTTR. Briefly: Leaf Blotch of Wheat, in vivo whole plant, 24 Hour Protectant. Conditions: Zymoseptoria tritici; wheat (cultivar Yuma), sprayed at 100 ppm, inoculated after 24 hours; control of fungal infection vs untreated plants; read-out: SEPTTR in vivo 1 Day Protectant.
Series [9] has as its system Puccinia recondita—PUCCRT. Briefly: Brown Rust of Wheat, in vivo whole plant, 24 Hour Protectant. The settings on record: Puccinia; wheat (cultivar Yuma), sprayed at 100 ppm, inoculated after 24 hours; control of fungal infection vs untreated plants; read-out: PUCCRT in vivo 1 Day Protectant.
Series [10] has as its system Phytophthora infestans (PHYTIN). Briefly: microbe, parasite or virus in culture. Type of series: cell-based. The settings on record: Phytophthora infestans, read-out: PHYTIN in vitro Growth Inhibition.
Series [11] deals with Erysiphe graminis—ERYSGT. Nature of the series: Powdery Mildew of Wheat, in vivo whole plant, 24 Hour Protectant. The settings on record: Erysiphe, in Triticum aestivum, 24 h, read-out: ERYSGT in vivo 1 Day Protectant.

With `Cc1ccnc(C(=O)NC2C(=O)OC(=O)[C@H](Cc3ccccc3)[C@@H](OC(=O)C(C)C)[C@H](C)OC2=O)c1O` (stereo partly drawn) [Compound 237], the melting point was in the range of 122 to 134 °C. In addition, the inhibition of growth in series [1] was below 80%. Besides, the inhibition of growth in [2] is below 80%. Besides, the inhibition of growth at 25 µg/mL in [3] is below 80%. Besides, in [4], the inhibition of growth at 25 µg/mL was below 80%. Besides, the pest or weed control at 100 ppm in series [5] was 25 to 74%. The inhibition of growth at 25 µg/mL in [6] was below 80%. Moreover, in series [7], the pest or weed control at 100 ppm was below 25%. Besides, the pest or weed control at 100 ppm in series [8] lay in the range of 25 to 74%. The pest or weed control at 100 ppm in series [9] lay in the range of 75 to 100%. Moreover, the inhibition of growth at 25 µg/mL in [10] is below 80%. The pest or weed control at 100 ppm in series [11] is below 25%.

A word on the melting point: it is the temperature of the solid-liquid transition.
